Source: patent US20240398989A1, “METHODS AND COMPOSITIONS FOR DIAGNOSIS AND TREATMENT OF METABOLIC DISORDERS” (The Broad Institute, Inc., priority 2021, published 2024)

System: primary human hepatocytes (PHH)
Test: LipocyteProfiler of drug-treated primary human hepatocytes
Format: cell-based
Settings: for appearance of the cytoskeleton, Golgi and plasma membrane (AGP Texture_AngularSecondMoment): 5 mM metformin for 24h vs control, p=9.96e-08
Description: Primary human hepatocytes (PHH) were purchased from BioIVT. Donor lot YNZ was used in this study. PHH were thawed and immediately resuspended in CP media (BioIVT) supplemented with torpedo antibiotic (BioIVT). Cell count and viability were assessed by trypan blue exclusion test prior to plating. […] Four hours after plating, media was replaced with fresh CP media. After 24 h, media was replaced with fresh CP media or CP media containing oleic acid (0.3 mM) or metformin (5 mM). Hepatocytes were incubated for an additional 24 h prior to processing. Human primary AMSCs and PHH were plated in 96-well CellCarrier plates (Perkinelmer #6005550). […] Primary human hepatocytes were stained after 48 h in culture, and 24h following treatment with oleic acid or metformin. On the respective day of the assay, cell culture media was removed and replaced by 0.5 μM Mitotracker staining solution (1 mM MitoTracker Deep Red stock (Invitrogen #M22426) diluted in culture media) to each well followed by 30 minutes incubation at 37° C.' protected from light. […] PFA was removed and cells were washed once with Hank's Balanced Salt Solution (1×), HBSS (Gibco #14025076). […] Finally, staining solution was removed and cells were washed three times with HBSS. Cells were imaged using a Opera Phenix High content screening system. […] Prior to processing, flat field illumination correction was performed using functions generated from the median intensity across each plate. Nuclei were identified using the DAPI stain and then expanded to identify whole cells using the Phalloidin/WGA and BODIPY stains. Regions of cytoplasm were then determined by removing the Nuclei from the Cell segmentations. Speckles of BODIPY staining were enhanced to assist in detection of small and large individual Lipid objects. For each object set measurements were collected representing size, shape, intensity, granularity, texture, colocalization and distance to neighbouring objects. After LipocyteProfiler (LP) feature extraction data was filtered by applying automated and manual quality control steps. […] Second, every field was assessed visually and fields that were corrupted by experimental induced technical artifacts were removed. Furthermore, blocklisted features (Way, Gregory (2019): Blocklist Features-Cell Profiler. figshare. […] After filtering data were normalised per plate using a robust scaling approach (Pedregosa et al. 2011) that subtracts the median from each variable and divides it by the interquartile range. Individual wells were aggregated for downstream analysis by cell depot and day of differentiation.

[1] = PHH metformin treatment (5 mM, 24h), t-test

With CN(C)C(=N)N=C(N)N [metformin] the Nuclei_Intensity_IntegratedIntensityEdge_AGP t-statistics [1] was −8.2E+00, the Nuclei_Intensity_IntegratedIntensityEdge_DNA t-statistics [1] was −1.8E+01 and the Nuclei_Intensity_IntegratedIntensityEdge_Mito t-statistics [1] was 5.3E+00. For the same compound, the Nuclei_Intensity_IntegratedIntensity_DNA t-statistics [1] was −1.3E+01, the Nuclei_Intensity_IntegratedIntensity_Lipid t-statistics [1] was −5.7E+00 and the Nuclei_Intensity_IntegratedIntensity_Mito t-statistics [1] was 7.3E+00. It also gave a Nuclei_Intensity_LowerQuartileIntensity_AGP t-statistics [1] of −1.4E+01, a Nuclei_Intensity_LowerQuartileIntensity_DNA t-statistics [1] of −1.9E+01 and a Nuclei_Intensity_LowerQuartileIntensity_Lipid t-statistics [1] of −5.4E+00. The Nuclei_Intensity_LowerQuartileIntensity_Mito t-statistics [1] was 7.7E+00, the Nuclei_Intensity_MADIntensity_AGP t-statistics [1] was −2.2E+01 and the Nuclei_Intensity_MADIntensity_DNA t-statistics [1] was 4.7E+00. The Nuclei_Intensity_MADIntensity_Mito t-statistics [1] was 1.2E+01, the Nuclei_Intensity_MassDisplacement_AGP t-statistics [1] was 1.9E+01 and the Nuclei_Intensity_MassDisplacement_DNA t-statistics [1] was 6.2E+01. It also gave a Nuclei_Intensity_MassDisplacement_Lipid t-statistics [1] of 2.6E+01, a Nuclei_Intensity_MassDisplacement_Mito t-statistics [1] of 1.2E+01 and a Nuclei_Intensity_MaxIntensityEdge_AGP t-statistics [1] of −8.0E+00. The Nuclei_Intensity_MaxIntensityEdge_DNA t-statistics [1] was −1.3E+01, the Nuclei_Intensity_MaxIntensityEdge_Mito t-statistics [1] was 3.3E+00 and the Nuclei_Intensity_MaxIntensity_AGP t-statistics [1] was −1.6E+01. It also gave a Nuclei_Intensity_MaxIntensity_Mito t-statistics [1] of 3.5E+00, a Nuclei_Intensity_MeanIntensityEdge_AGP t-statistics [1] of −8.2E+00 and a Nuclei_Intensity_MeanIntensityEdge_DNA t-statistics [1] of −1.6E+01. The Nuclei_Intensity_MeanIntensityEdge_Mito t-statistics [1] was 5.2E+00, the Nuclei_Intensity_MeanIntensity_AGP t-statistics [1] was −1.6E+01 and the Nuclei_Intensity_MeanIntensity_DNA t-statistics [1] was −9.5E+00. For the same compound, the Nuclei_Intensity_MeanIntensity_Lipid t-statistics [1] was −4.6E+00, the Nuclei_Intensity_MeanIntensity_Mito t-statistics [1] was 7.8E+00 and the Nuclei_Intensity_MedianIntensity_AGP t-statistics [1] was −1.7E+01. It also gave a Nuclei_Intensity_MedianIntensity_DNA t-statistics [1] of −1.3E+01, a Nuclei_Intensity_MedianIntensity_Lipid t-statistics [1] of −4.5E+00 and a Nuclei_Intensity_MedianIntensity_Mito t-statistics [1] of 8.9E+00. For the same compound, the Nuclei_Intensity_MinIntensityEdge_AGP t-statistics [1] was −7.5E+00, the Nuclei_Intensity_MinIntensityEdge_DNA t-statistics [1] was −1.6E+01 and the Nuclei_Intensity_MinIntensityEdge_Lipid t-statistics [1] was −8.5E+00. For the same compound, the Nuclei_Intensity_MinIntensityEdge_Mito t-statistics [1] was 3.0E+00, the Nuclei_Intensity_MinIntensity_AGP t-statistics [1] was −7.8E+00 and the Nuclei_Intensity_MinIntensity_DNA t-statistics [1] was −1.6E+01. For the same compound, the Nuclei_Intensity_MinIntensity_Lipid t-statistics [1] was −8.6E+00, the Nuclei_Intensity_MinIntensity_Mito t-statistics [1] was 4.5E+00 and the Nuclei_Intensity_StdIntensityEdge_AGP t-statistics [1] was −7.5E+00. It also gave a Nuclei_Intensity_StdIntensityEdge_DNA t-statistics [1] of −1.0E+01, a Nuclei_Intensity_StdIntensityEdge_Lipid t-statistics [1] of 6.3E+00 and a Nuclei_Intensity_StdIntensityEdge_Mito t-statistics [1] of 5.2E+00. The Nuclei_Intensity_StdIntensity_AGP t-statistics [1] was −1.8E+01, the Nuclei_Intensity_StdIntensity_DNA t-statistics [1] was 3.5E+00 and the Nuclei_Intensity_StdIntensity_Mito t-statistics [1] was 6.1E+00. It also gave a Nuclei_Intensity_UpperQuartileIntensity_AGP t-statistics [1] of −1.8E+01, a Nuclei_Intensity_UpperQuartileIntensity_DNA t-statistics [1] of −5.7E+00 and a Nuclei_Intensity_UpperQuartileIntensity_Lipid t-statistics [1] of −4.4E+00. For the same compound, the Nuclei_Intensity_UpperQuartileIntensity_Mito t-statistics [1] was 8.5E+00, the Nuclei_Location_CenterMassIntensity_Y_AGP t-statistics [1] was 4.1E+00 and the Nuclei_Location_CenterMassIntensity_Y_DNA t-statistics [1] was 4.2E+00. The Nuclei_Location_CenterMassIntensity_Y_Lipid t-statistics [1] was 4.1E+00, the Nuclei_Location_CenterMassIntensity_Y_Mito t-statistics [1] was 4.2E+00 and the Nuclei_Location_Center_Y t-statistics [1] was 4.2E+00. It also gave a Nuclei_Location_MaxIntensity_Y_AGP t-statistics [1] of 4.1E+00, a Nuclei_Location_MaxIntensity_Y_DNA t-statistics [1] of 4.2E+00 and a Nuclei_Location_MaxIntensity_Y_Lipid t-statistics [1] of 4.1E+00. The Nuclei_Location_MaxIntensity_Y_Mito t-statistics [1] was 4.5E+00, the Nuclei_Neighbors_AngleBetweenNeighbors_2 t-statistics [1] was −2.2E+01 and the Nuclei_Neighbors_FirstClosestDistance_2 t-statistics [1] was −3.5E+00. It also gave a Nuclei_Neighbors_FirstClosestObjectNumber_2 t-statistics [1] of −1.2E+01, a Nuclei_Neighbors_NumberOfNeighbors_2 t-statistics [1] of 1.9E+01 and a Nuclei_Neighbors_PercentTouching_2 t-statistics [1] of 2.0E+01. The Nuclei_Neighbors_SecondClosestDistance_2 t-statistics [1] was 4.5E+00, the Nuclei_Neighbors_SecondClosestObjectNumber_2 t-statistics [1] was −1.2E+01 and the Nuclei_Number_Object_Number t-statistics [1] was −1.2E+01. For the same compound, the “Nuclei_Radial Distribution_MeanFrac_Mito_3of4 t-statistics” value [1] was 2.6E+01, the Nuclei_RadialDistribution_FracAtD_AGP_3of4 t-statistics [1] was −2.7E+01 and the Nuclei_RadialDistribution_FracAtD_DNA_2of4 t-statistics [1] was 3.0E+01. The Nuclei_RadialDistribution_FracAtD_Lipid_1of4 t-statistics [1] was −1.2E+01, the Nuclei_RadialDistribution_FracAtD_Mito_3of4 t-statistics [1] was 2.4E+01 and the Nuclei_RadialDistribution_MeanFrac_AGP_3of4 t-statistics [1] was −2.7E+01. For the same compound, the Nuclei_RadialDistribution_MeanFrac_DNA_2of4 t-statistics [1] was 3.8E+01, the Nuclei_RadialDistribution_MeanFrac_Lipid_2of4 t-statistics [1] was −7.9E+00 and the Nuclei_RadialDistribution_RadialCV_AGP_3of4 t-statistics [1] was 2.5E+01. For the same compound, the Nuclei_RadialDistribution_RadialCV_DNA_3of4 t-statistics [1] was 9.7E+01, the Nuclei_RadialDistribution_RadialCV_Lipid_3of4 t-statistics [1] was 2.2E+01 and the Nuclei_RadialDistribution_RadialCV_Mito_2of4 t-statistics [1] was 3.7E+01. The Nuclei_Texture_AngularSecondMoment_AGP_10_02 t-statistics [1] was 1.2E+01, the Nuclei_Texture_AngularSecondMoment_DNA_20_03 t-statistics [1] was 9.4E+00 and the Nuclei_Texture_AngularSecondMoment_Lipid_5_03 t-statistics [1] was 4.2E+00. For the same compound, the Nuclei_Texture_AngularSecondMoment_Mito_5_02 t-statistics [1] was −1.8E+01, the Nuclei_Texture_Contrast_AGP_10_03 t-statistics [1] was −1.8E+01 and the Nuclei_Texture_Contrast_DNA_5_01 t-statistics [1] was 5.8E+00. For the same compound, the Nuclei_Texture_Contrast_Lipid_20_02 t-statistics [1] was 4.3E+00, the Nuclei_Texture_Contrast_Mito_5_03 t-statistics [1] was 6.8E+00 and the Nuclei_Texture_Correlation_AGP_10_03 t-statistics [1] was 3.0E+01. The Nuclei_Texture_Correlation_DNA_10_00 t-statistics [1] was −1.6E+01, the Nuclei_Texture_Correlation_Lipid_5_03 t-statistics [1] was 2.3E+01 and the Nuclei_Texture_Correlation_Mito_5_02 t-statistics [1] was 1.5E+01. For the same compound, the Nuclei_Texture_DifferenceEntropy_AGP_10_00 t-statistics [1] was −2.1E+01, the Nuclei_Texture_DifferenceEntropy_DNA_10_03 t-statistics [1] was −8.0E+00 and the Nuclei_Texture_DifferenceEntropy_Lipid_20_01 t-statistics [1] was 8.2E+00. For the same compound, the Nuclei_Texture_DifferenceEntropy_Mito_20_00 t-statistics [1] was 8.0E+00, the Nuclei_Texture_DifferenceVariance_AGP_10_00 t-statistics [1] was 1.4E+01 and the Nuclei_Texture_DifferenceVariance_DNA_20_03 t-statistics [1] was 7.3E+00. It also gave a Nuclei_Texture_DifferenceVariance_Lipid_20_00 t-statistics [1] of 5.6E+00, a Nuclei_Texture_DifferenceVariance_Mito_10_00 t-statistics [1] of −8.1E+00 and a Nuclei_Texture_Entropy_AGP_5_00 t-statistics [1] of −1.7E+01. The Nuclei_Texture_Entropy_DNA_10_03 t-statistics [1] was −7.7E+00, the Nuclei_Texture_Entropy_Lipid_20_01 t-statistics [1] was 7.3E+00 and the Nuclei_Texture_Entropy_Mito_5_02 t-statistics [1] was 1.3E+01. For the same compound, the Nuclei_Texture_InfoMeas1_AGP_10_03 t-statistics [1] was 2.6E+01, the Nuclei_Texture_InfoMeas1_Lipid_20_03 t-statistics [1] was −8.6E+00 and the Nuclei_Texture_InfoMeas2_DNA_10_03 t-statistics [1] was −1.3E+01. For the same compound, the Nuclei_Texture_InfoMeas2_Mito_5_01 t-statistics [1] was 1.3E+01, the Nuclei_Texture_InverseDifferenceMoment_AGP_10_00 t-statistics [1] was 2.1E+01 and the Nuclei_Texture_InverseDifferenceMoment_DNA_20_03 t-statistics [1] was 1.5E+01. For the same compound, the Nuclei_Texture_InverseDifferenceMoment_Lipid_20_00 t-statistics [1] was 7.5E+00, the Nuclei_Texture_InverseDifferenceMoment_Mito_10_00 t-statistics [1] was −1.4E+01 and the Nuclei_Texture_SumAverage_AGP_10_00 t-statistics [1] was −1.8E+01. The Nuclei_Texture_SumAverage_DNA_10_01 t-statistics [1] was −1.8E+01, the Nuclei_Texture_SumAverage_Lipid_10_00 t-statistics [1] was −6.6E+00 and the Nuclei_Texture_SumAverage_Mito_20_00 t-statistics [1] was 8.5E+00. For the same compound, the Nuclei_Texture_SumEntropy_AGP_5_00 t-statistics [1] was −1.9E+01, the Nuclei_Texture_SumEntropy_DNA_10_03 t-statistics [1] was −7.8E+00 and the Nuclei_Texture_SumEntropy_Lipid_20_01 t-statistics [1] was 8.0E+00. It also gave a Nuclei_Texture_SumEntropy_Mito_5_02 t-statistics [1] of 1.1E+01, a Nuclei_Texture_SumVariance_AGP_10_03 t-statistics [1] of −1.7E+01 and a Nuclei_Texture_SumVariance_DNA_5_02 t-statistics [1] of 6.2E+00. For the same compound, the Nuclei_Texture_SumVariance_Lipid_20_01 t-statistics [1] was 6.0E+00, the Nuclei_Texture_SumVariance_Mito_5_02 t-statistics [1] was 7.3E+00 and the Nuclei_Texture_Variance_AGP_10_03 t-statistics [1] was −1.8E+01. For the same compound, the Nuclei_Texture_Variance_DNA_5_00 t-statistics [1] was 5.8E+00, the Nuclei_Texture_Variance_Lipid_20_00 t-statistics [1] was 4.7E+00 and the Nuclei_Texture_Variance_Mito_5_02 t-statistics [1] was 6.9E+00. For the same compound, the “BODIPY Texture Entropy” value (PHH, 5 mM metformin for 24h, p 6.98e-04) was “difference”, the “mitochondrial membrane potential (Mito MeanIntensity)” value (PHH, 5 mM metformin for 24h, p 0.0104) was “increased” and the “cell size (AreaShape MinorAxislength)” value (PHH, 5 mM metformin for 24h, p=3.11e-12) was “smaller”. For the same compound, the “cell size (AreaShape Area)” value (PHH, 5 mM metformin for 24h, p=3.87e-11) was “smaller”, the “lipid droplet number (LargeBODIPYObjects_Count)” value (PHH, 5 mM metformin for 24h, p=2.37e-07) was “reduced” and the “lipid content (BODIPY MeanIntensity)” value (PHH, 5 mM metformin for 24h, p=6.11e-06) was “reduced”. The “mitochondrial fusion (Mito Texture_angularSecondMoment, Mito Texture Entropy, Mito Texture_InfoMeas1)” value (PHH, 5 mM metformin for 24h, p=7.58e-05, p=6.66e-06, p=2.17e-12) was “increased”, the “appearance of the cytoskeleton, Golgi and plasma membrane (AGP Texture_AngularSecondMoment)” value (PHH) was “less uniform” and the “appearance of the cytoskeleton, Golgi and plasma membrane (AGP Texture_AngularSecondMoment)” value (PHH, listed as Metformin) was “reduced cytoskeletal randomness”.
